Source: patent US9611292B2, “Peptide inhibitors of serotonin 5-HT2c receptors:PTEN interaction” (THE BOARD OF REGENTS OF THE UNIVERSITY OF TEXAS SYSTEM, priority 2011, dated 2017)
Entries after “also recorded” stand apart in the source; their conditions may differ.

What was measured:
5-HT2CR = assay: Cai++ release in 5-HT2CR-CHO cells; format: cell-based
Description: (§1) The 5-HT2CR:PTEN complex occurs in rat brain regions implicated in palatable food reward. […] These cells have been employed for 5-HT2CR signaling studies. […] Providing 3L4F and fragments thereof disrupt the complex in the cell and result in the lack of co-localization of the molecules by immunohistochemistry or by immunoprecipitation studies. 5-HT2CR and PTEN can be co-immunoprecipitated from brain tissue samples. Additional studies using the split luciferase assay also detect direct coupling of 5-HT2CR with PTEN.
Functional analysis of the complex was investigated using Cai^++ release in 5-HT2CR-CHO cells. […] The studies have shown that the 3L4F peptide enhances Cai^++ release via a 5-HT2CR specific mechanism acting down stream ligand binding.
FIG. 15 compares the efficacy of derivatives 210 and A1 in terms of % 1 nM 5-HT induced Cai^++ release in 5-HT2CR-CHO cells. FIG. 16 compares the efficacy of derivatives 210 and A2 in terms of % 1 nM 5-HT induced Cai^++ Release in 5-HT2CR-CHO cells. FIG. 17 compares the efficacy of derivatives 210 and A3 in terms of % 1 nM 5-HT induced Cai^++ release in 5-HT2CR-CHO cells. FIG. 18 compares the efficacy of derivatives 210 and A4 in terms of % 1 nM 5-HT induced Cai^++ release in 5-HT2CR-CHO cells. FIG. 19 compares the efficacy of derivatives 210 and A5 in terms of % 1 nM 5-HT induced Cai^++ release in 5-HT2CR-CHO cells. FIG. 20 compares the efficacy of derivatives 210 and A6 in terms of % 1 nM 5-HT induced Cai^++ release in 5-HT2CR-CHO cells. FIG. 21 compares the efficacy of derivatives 210 and A8 in terms of % 1 nM 5-HT induced […] release in 5-HT2CR-CHO cells.

5-HT2CR:PTEN complex = assay: in situ localization (immunohistochemistry / immunoprecipitation) of 5-HT2CR:PTEN association in cells; format: cell-based; settings: for disrupting activity on 5-HT2CR:PTEN association: summary statement, assay not specified
Description: as §1
Peptides described herein enhance 5-HT2CR signaling and peptide disruption of the serotonin (5-HT) 5-HT2CR interaction with protein phosphatase and tensin (PTEN). This interaction is functionally important to the 5-HT2CR signalosome.

rats = assay: 1-choice serial reaction time task, impulsive action (premature responses); format: in vivo, rat; settings: 1-choice serial reaction time task, single agent
Description: FIG. 23 illustrates additional behavioral effects of TAT-3L4F.

5-HT2AR = biological target: T1, 5-HT2AR (Homo sapiens, UniProt P28223); assay: Cai++ release in 5-HT2AR-CHO cells; format: cell-based
T1 construct: expressed in transfected cells; host or cells: CHO
T1 sequence (P28223 whole entry): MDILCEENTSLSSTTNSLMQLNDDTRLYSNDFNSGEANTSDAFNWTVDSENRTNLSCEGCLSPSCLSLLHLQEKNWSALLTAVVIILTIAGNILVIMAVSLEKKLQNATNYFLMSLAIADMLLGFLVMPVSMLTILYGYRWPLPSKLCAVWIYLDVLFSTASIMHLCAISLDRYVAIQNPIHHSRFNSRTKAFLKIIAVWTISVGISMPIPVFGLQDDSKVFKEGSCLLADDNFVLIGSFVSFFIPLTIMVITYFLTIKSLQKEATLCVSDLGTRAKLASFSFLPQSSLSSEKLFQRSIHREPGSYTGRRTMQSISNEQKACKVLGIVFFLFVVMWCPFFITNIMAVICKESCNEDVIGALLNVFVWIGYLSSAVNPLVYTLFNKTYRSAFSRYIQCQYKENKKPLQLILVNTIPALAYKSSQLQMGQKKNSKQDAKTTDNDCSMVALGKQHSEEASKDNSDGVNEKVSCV

5-HT2CR:PTEN interaction = assay: split luciferase assay of direct 5-HT2CR:PTEN interaction in live cells; format: cell-based
Description: In addition split luciferase assays were used to detect direct coupling of 5-HT2CR with PTEN.

| Compound | 5-HT (1 nM) induced Cai++ release (5-HT2CR) | disrupting activity on 5-HT2CR:PTEN association (5-HT2CR:PTEN complex) | further results |
| --- | --- | --- | --- |
| V27-R45: 5-HT2CR N-terminus peptide fragment V27-R45 (VSPVAAIVTDIFNTSDGGR) [reference compound] | inactive | – | – |
| PNQDQNAR [derivative 210] | retain 3L4F activity; also recorded: increase | active fragment | – |
| QNARRRKK [derivative 212] | less efficacious than 3L4 F | less disrupting activity than the 210 fragment | – |
| RRKKKERR [derivative 214] | less efficacious than 3L4 F | less disrupting activity than the 210 fragment | – |
| c1cc2c3c(c1)[C@H]1CCC[C@H]1N3CCNC2 [WAY163909] | – | – | impulsive action (premature responses), agent alone (rats): neither of which have effects on their own |
| PNQDQNARRRKKKERR [3L4F] | increases | disrupter | WAY163909 induced Cai++ release (5-HT2CR; selective orthosteric 5-HT2CR agonist WAY163909): potentiates; 3L4F-enhanced 5-HT induced Cai++ release, effect of 5-HT2CR antagonist (5-HT2CR; with 5-HT2CR antagonist): inhibits; 5-HT induced Cai++ release (5-HT2AR): does not alter; association of 5-HT2CR and PTEN (5-HT2CR:PTEN complex; quantitation of in situ localization studies): disrupts the association; direct 5-HT2CR:PTEN interaction (5-HT2CR:PTEN interaction; NLuc fused to 3rd intracellular loop of 5-HT2CR, CLuc fused to PTEN): disrupts; direct 5-HT2CR:PTEN interaction (5-HT2CR:PTEN interaction; NLuc fused to full length 5-HT2CR): disrupts |
